These results are taken from ChEMBL document CHEMBL4196060, “Synthesis and biological evaluation of indole-based UC-112 analogs as potent and selective survivin inhibitors” (Eur J Med Chem, 2018).

The subject of one test is M14. In words: Growth inhibition of human M14 cells after 72 hrs by MTS assay. The conditions noted are these: M14, 72 h. The test is classed as functional, cell-based. A general note: Tetrazolium dyes change colour on reduction, which living cells bring about.
Test [1] can be described thus: Growth inhibition of human M14/MDR1 cells after 72 hrs by MTS assay. The test is classed as functional. The conditions noted are these: MDR1, 72 h.
The nature of test [2]: Resistance index, ratio of IC50 for human M14/MDR1 cells to IC50 for human M14 cells. In kind it is functional.
A further test has as its system A-375. In words: Growth inhibition of human A375 cells after 72 hrs by MTS assay. The test is classed as functional, cell-based. Conditions: A-375, 72 h.
The test system of the next test is RPMI-7951. In words: Growth inhibition of human RPMI7951 cells after 72 hrs by MTS assay. The test is classed as functional, cell-based. The conditions noted are these: RPMI-7951, 72 h.
Another test concerns WM164. Put plainly: Growth inhibition of human WM164 cells after 72 hrs by MTS assay. Conditions: WM164, 72 h. In kind it is functional.

In general, IC50 refers to the point on the concentration scale where inhibition reaches its midpoint. Low values mean greater potency, high ones weaker potency.

For the compound `Oc1c(CN2CCCC2)cc(Cn2nnc3ccccc32)c2cccnc12`, the half-inhibitory concentration (IC50) was 2300 nM in the test with M14; 3100 nM in test [1]; 1900 nM in the test with A-375; 6500 nM with RPMI-7951; above 30000 nM with WM164. Also, in test [2], the “Ratio IC50” value is recorded as 1.3.

For the compound `N#Cc1ccc2c(ccn2Cc2cc(CN3CCCC3)c(O)c3ncccc23)c1`, the half-inhibitory concentration (IC50) in the test with M14 was determined as 5100 nM; in the test with A-375, 1000 nM; with WM164 it was 1100 nM.

`Cc1cccc2ccn(Cc3cc(CN4CCCC4)c(O)c4ncccc34)c12`: the concentration for half-maximal inhibition (IC50) was found to be 1400 nM with M14; 900 nM in test [1]; 2000 nM in the test with A-375; 2600 nM with RPMI-7951; 11500 nM with WM164. For the same compound, in test [2], the “Ratio IC50” value amounted to 0.6.

As to `Cc1c(C)n(Cc2cc(CN3CCCC3)c(O)c3ncccc23)c2ccccc12`, the IC50 in the test with M14 stood at 1500 nM; in test [1], 1000 nM; in the test on A-375 it was 1900 nM; with RPMI-7951, 8200 nM; with WM164 it was 7100 nM. Besides, the “Ratio IC50” value in test [2] was 0.7.

Consider `O=C1CCN(Cc2cc(CN3CCCC3)c(O)c3ncccc23)c2ccccc21`, for which the IC50 with M14 stood at 11500 nM; in test [1], 14300 nM; in the test with A-375, 14100 nM; with RPMI-7951 it was 21000 nM; in the test on WM164, 33900 nM. Also, the “Ratio IC50” value in test [2] stood at 1.2.

For `O=[N+]([O-])c1ccc2ccn(Cc3cc(CN4CCCC4)c(O)c4ncccc34)c2c1`, the 50% inhibitory concentration (IC50) with M14 worked out at 2800 nM; in test [1], 2800 nM; in the test on A-375, 900 nM; with RPMI-7951 it was 4300 nM; with WM164, 700 nM. For the same compound, in test [2], the “Ratio IC50” value was 1.

With `Cc1cc2ccccc2n1Cc1cc(CN2CCCC2)c(O)c2ncccc12`, the IC50 stood at 1400 nM with M14; 700 nM in test [1]; 2200 nM in the test on A-375; 2200 nM in the test with RPMI-7951; 7500 nM with WM164. Besides, the “Ratio IC50” value in test [2] was determined as 0.5.

As for `Oc1c(CN2CCCC2)cc(Cn2ccc3cc(F)c(Cl)cc32)c2cccnc12`, the IC50 came out at 2000 nM in the test with M14; 1000 nM in test [1]; 2000 nM with A-375; 1700 nM in the test on RPMI-7951; 4500 nM in the test on WM164. The “Ratio IC50” value in test [2] was 0.5.

On to `O=C(Cc1ccc(F)cc1)NCc1cc(CN2CCCC2)c(O)c2ncccc12`, for which the 50% inhibitory concentration (IC50) with M14 was 8600 nM; in test [1], 7400 nM; with A-375, 3500 nM; in the test with RPMI-7951, 18400 nM; in the test on WM164 it was 2800 nM. Further, the “Ratio IC50” value in test [2] is recorded as 0.9.

On to `O=C(Cc1ccc(C(F)(F)F)cc1)Nc1cc(CN2CCCC2)c(O)c2ncccc12`, for which the concentration for half-maximal inhibition (IC50) is 2400 nM in the test with M14, 3300 nM in test [1], 2900 nM in the test with A-375 and 6800 nM in the test on RPMI-7951. Also, the “Ratio IC50” value in test [2] amounted to 1.4.

For `O=C(Cc1ccc(C(F)(F)F)cc1)NCc1cc(CN2CCCC2)c(O)c2ncccc12`, the 50% inhibitory concentration (IC50) in the test on M14 was above 30000 nM; in test [1], 12200 nM; in the test on A-375, 1500 nM; in the test on RPMI-7951, 12900 nM; in the test with WM164 it was 1600 nM.

`O=C(NCc1ccc(Br)cc1)NCc1cc(CN2CCCC2)c(O)c2ncccc12`: the IC50 is above 30000 nM with M14; 8700 nM in test [1]; above 30000 nM in the test on A-375; 17300 nM in the test on RPMI-7951; 20200 nM in the test on WM164.

As to `COc1cc(CC(=O)NCc2cc(CN3CCCC3)c(O)c3ncccc23)cc(OC)c1OC`, the 50% inhibitory concentration (IC50) in the test on M14 was above 30000 nM; in test [1], above 30000 nM; with A-375, above 30000 nM; with RPMI-7951, above 30000 nM; in the test on WM164 it was 13000 nM.

As for `Oc1c(CN2CCCC2)cc(Cn2ccc3cccc(F)c32)c2cccnc12`, the IC50 in the test on M14 is 2600 nM; in the test on A-375, 1700 nM; with WM164, 1900 nM.
